Measurements reported in PubChem BioAssay (NCI).
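Cells were grown in 96-well plates and exposed to each compound for 48 hours at five concentrations; endpoints were interpolated linearly between bracketing concentrations, or set to the highest concentration if not reached. Definition used: TGI = concentration required for complete inhibition of growth.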

What was measured:
Test in all cases: DTP human tumour cell line panel, 48 h
A498 renal = tested on: A498 renal
SNB-75 CNS = tested on: SNB-75 CNS
NCI-H460 lung = tested on: NCI-H460 lung
786-0 renal = tested on: 786-0 renal
RPMI-8226 leukemia = tested on: RPMI-8226 leukemia
OVCAR-5 ovarian = tested on: OVCAR-5 ovarian
UACC-62 melanoma = tested on: UACC-62 melanoma
UO-31 renal = tested on: UO-31 renal
HCT-15 colon = tested on: HCT-15 colon
SR leukemia = tested on: SR leukemia
SF-295 CNS = tested on: SF-295 CNS
DU-145 prostate = tested on: DU-145 prostate
NCI-H522 lung = tested on: NCI-H522 lung
NCI-H226 lung = tested on: NCI-H226 lung
HCC-2998 colon = tested on: HCC-2998 colon
IGROV1 ovarian = tested on: IGROV1 ovarian
K-562 leukemia = tested on: K-562 leukemia
ACHN renal = tested on: ACHN renal
OVCAR-4 ovarian = tested on: OVCAR-4 ovarian
HCT-116 colon = tested on: HCT-116 colon
M14 melanoma = tested on: M14 melanoma
HOP-92 NSCLC = tested on: HOP-92 NSCLC
A549 NSCLC = tested on: A549 NSCLC
UACC-257 melanoma = tested on: UACC-257 melanoma
EKVX NSCLC = tested on: EKVX NSCLC
SK-MEL-2 melanoma = tested on: SK-MEL-2 melanoma
SK-MEL-5 melanoma = tested on: SK-MEL-5 melanoma
OVCAR-3 ovarian = tested on: OVCAR-3 ovarian
SF-539 CNS = tested on: SF-539 CNS
SK-MEL-28 melanoma = tested on: SK-MEL-28 melanoma
KM12 colon = tested on: KM12 colon
T-47D breast = tested on: T-47D breast
U251 CNS = tested on: U251 CNS
SF-268 CNS = tested on: SF-268 CNS
TK-10 renal = tested on: TK-10 renal
HOP-62 NSCLC = tested on: HOP-62 NSCLC
SW-620 colon = tested on: SW-620 colon
HT29 colon = tested on: HT29 colon
NCI-H23 lung = tested on: NCI-H23 lung
OVCAR-8 ovarian = tested on: OVCAR-8 ovarian
BT-549 breast = tested on: BT-549 breast
SK-OV-3 ovarian = tested on: SK-OV-3 ovarian
RXF 393 renal = tested on: RXF 393 renal
MOLT-4 leukemia = tested on: MOLT-4 leukemia
NCI/ADR-RES ovarian = tested on: NCI/ADR-RES ovarian
LOX IMVI melanoma = tested on: LOX IMVI melanoma
SN12C renal = tested on: SN12C renal
CAKI-1 renal = tested on: CAKI-1 renal
CCRF-CEM leukemia = tested on: CCRF-CEM leukemia
COLO 205 colon = tested on: COLO 205 colon
HL-60(TB) leukemia = tested on: HL-60(TB) leukemia
MDA-MB-435 = tested on: MDA-MB-435
PC-3 prostate = tested on: PC-3 prostate
MCF7 breast = tested on: MCF7 breast
MDA-MB-231 breast = tested on: MDA-MB-231 breast

Measured: TGI

COc1ccc(COCCOCc2nc(C#N)c(N)o2)cc1
75.8 µM: NCI-H522 lung
> 100 µM: A498 renal | SNB-75 CNS | NCI-H460 lung | 786-0 renal | RPMI-8226 leukemia | OVCAR-5 ovarian | UACC-62 melanoma | UO-31 renal | HCT-15 colon | SR leukemia | SF-295 CNS | DU-145 prostate | NCI-H226 lung | HCC-2998 colon | IGROV1 ovarian | K-562 leukemia | ACHN renal | OVCAR-4 ovarian | HCT-116 colon | M14 melanoma | HOP-92 NSCLC | A549 NSCLC | UACC-257 melanoma | EKVX NSCLC | SK-MEL-2 melanoma | SK-MEL-5 melanoma | OVCAR-3 ovarian | SF-539 CNS | SK-MEL-28 melanoma | KM12 colon | T-47D breast | U251 CNS | SF-268 CNS | TK-10 renal | HOP-62 NSCLC | SW-620 colon | HT29 colon | NCI-H23 lung | OVCAR-8 ovarian | BT-549 breast | SK-OV-3 ovarian | RXF 393 renal | MOLT-4 leukemia | NCI/ADR-RES ovarian | LOX IMVI melanoma | SN12C renal | CAKI-1 renal | CCRF-CEM leukemia | COLO 205 colon | HL-60(TB) leukemia | MDA-MB-435 | PC-3 prostate | MCF7 breast | MDA-MB-231 breast
